Experimental data: PMC2361651 (British Journal of Cancer, 2005)
Like-named read-outs stand apart in the source and are kept apart here.

Tests used:
[1] = human, in vivo
[2] = Plasma pharmacokinetics of SU5416 and metabolites in Phase I patients (HPLC UV); format: in vivo, human; details: for Vd / AUC(0-t) / clearance / half-life / Cmax / AUC: human; for half-life: read-out: T1/2λz (converted); for Cmax: read-out: Cmax
Description: Samples were taken prior to treatment infusion, 15 min into the infusion, at completion of the infusion and then at 5, 10, 20, 30, 45, 60, 120 and 240 min following the infusion. […] At the designated times, 4.0 ml of blood were collected into a lithium heparin tube, gently inverted and placed on ice to maintain the sample at 2–8°C. All samples were immediately centrifuged at 6000 r.p.m. at 4°C for 10 min, the supernatant divided between two 1.5 ml Nalgene cryovials and snap frozen in liquid nitrogen. Separated plasma samples were subsequently stored at −70°C until analysis.
Pharmacokinetic analysis was performed using a fully validated HPLC UV method ([Stopeck et al, 2002]). Plasma samples, standards (25–2000 ng ml^−1) and quality controls spiked with internal standards were extracted with acetonitrile. Following centrifugation, drying and reconstitution in 200 μl mobile phase, 20 μl were analysed by HPLC UV. Chromatography was carried out using a C18 analytical column, with a gradient mobile phase containing acetonitrile and 10 mM ammonium formate at pH 2.6. The flow rate was 0.8 ml min^−1 and the run-time 21 min. Detection was via UV absorption at a wavelength of 440 nm. The accuracy of the assay, reflected in relative error of measured concentration to theoretical (prepared) concentrations, was between 0.9 and 5.6% for all quality control samples.
Pharmacokinetic parameters were evaluated using WinNonLin Software®.

[3] = in vivo, iv, 145 mg m^−2, individual patients, twice weekly i.v. infusion, dose 145 mg m^−2, cycle 1inj8
[4] = in vivo, iv, 145 mg m^−2, individual patients, twice weekly i.v. infusion, dose 145 mg m^−2, cycle 2inj8
[5] = in vivo, iv, individual patients, twice weekly i.v. infusion, dose 145 → 190 mg m^−2, cycle 2inj1
[6] = in vivo, iv, individual patients, twice weekly i.v. infusion, dose 145 → 190 mg m^−2, cycle 2inj8
[7] = in vivo, iv, individual patients, twice weekly i.v. infusion, dose 145 → 190 mg m^−2, cycle 3inj2
[8] = plasma, iv, 48 mg m^−2, individual patients, twice weekly i.v. infusion, dose 48 mg m^−2, cycle 1inj2
[9] = plasma, iv, 48 mg m^−2, individual patients, twice weekly i.v. infusion, dose 48 mg m^−2, cycle 1inj8
[10] = plasma, iv, 48 mg m^−2, individual patients, twice weekly i.v. infusion, dose 48 mg m^−2, cycle 2inj8
[11] = plasma, iv, 65 mg m^−2, individual patients, twice weekly i.v. infusion, dose 65 mg m^−2, cycle 1inj2
[12] = plasma, iv, 65 mg m^−2, individual patients, twice weekly i.v. infusion, dose 65 mg m^−2, cycle 1inj3
[13] = plasma, iv, 65 mg m^−2, individual patients, twice weekly i.v. infusion, dose 65 mg m^−2, cycle 1inj8
[14] = plasma, iv, 85 mg m^−2, individual patients, twice weekly i.v. infusion, dose 85 mg m^−2, cycle 1inj2

With `Cc1cc(C)c(/C=C2\C(=O)Nc3ccccc32)[nH]1` [SU5416, Z-3-[(2,4-dimethylpyrrol-5-yl)methylidenyl]-2-indolinone] the “Grade II hypersensitivity reactions, patients affected” value [1] was 11 patients, the “average increase in drug clearance” value ([2]; day 4 vs day 25, five of the nine patients dosed at the same level on both days) was 22% and the “dose linearity of kinetics” value ([2]; dose range 48–145 mg m^−2, initial assessment and day 25) was “linear kinetics”. For the same compound, the Vd ([2]; in vivo, iv, 48 mg m^−2, individual patients, twice weekly i.v. infusion, dose 48 mg m^−2, cycle 1inj2, read-out: Vz (observed)) was 142 L, the AUC(0-t) ([2]; in vivo, iv, 48 mg m^−2, individual patients, twice weekly i.v. infusion, dose 48 mg m^−2, cycle 1inj8) was 816 ng·h/mL and the clearance ([2]; in vivo, iv, 85 mg m^−2, individual patients, twice weekly i.v. infusion, dose 85 mg m^−2, cycle 1inj8, read-out: CL (observed) (converted)) was 2520 mL/min. It also gave a half-life ([2]; in vivo, iv, 145 mg m^−2, individual patients, twice weekly i.v. infusion, dose 145 mg m^−2, cycle 1inj2) of 52.2 min, an AUC(0-t) [2, 3] of 4430 ng·h/mL and a Cmax [2, 3] of 3920 ng/mL. For the same compound, the half-life [2, 3] was 34.2 min, the AUC(0-t) [2, 4] was 1780 ng·h/mL and the clearance ([2]; in vivo, iv, 145 mg m^−2, individual patients, twice weekly i.v. infusion, dose 145 mg m^−2, cycle 2inj8, read-out: CL (observed) (converted)) was 3730 mL/min. For the same compound, the Cmax [2, 4] was 1340 ng/mL, the half-life [2, 4] was 43.2 min and the Vd ([2]; in vivo, iv, 145 mg m^−2, individual patients, twice weekly i.v. infusion, dose 145 mg m^−2, cycle 2inj8, read-out: Vz (observed)) was 233 L. It also gave an AUC(0-t) [2, 5] of 6450 ng·h/mL, a clearance ([2]; in vivo, iv, individual patients, twice weekly i.v. infusion, dose 145 → 190 mg m^−2, cycle 2inj1, read-out: CL (observed) (converted)) of 817 mL/min and a Cmax [2, 5] of 4000 ng/mL. The half-life [2, 5] was 46.2 min, the Vd ([2]; in vivo, iv, individual patients, twice weekly i.v. infusion, dose 145 → 190 mg m^−2, cycle 2inj1, read-out: Vz (observed)) was 54 L and the AUC(0-t) [2, 6] was 5040 ng·h/mL. For the same compound, the clearance ([2]; in vivo, iv, individual patients, twice weekly i.v. infusion, dose 145 → 190 mg m^−2, cycle 2inj8, read-out: CL (observed) (converted)) was 1320 mL/min, the Cmax [2, 6] was 3340 ng/mL and the half-life [2, 6] was 43.2 min. For the same compound, the Vd ([2]; in vivo, iv, individual patients, twice weekly i.v. infusion, dose 145 → 190 mg m^−2, cycle 2inj8, read-out: Vz (observed)) was 82 L, the AUC(0-t) [2, 7] was 7170 ng·h/mL and the clearance ([2]; in vivo, iv, individual patients, twice weekly i.v. infusion, dose 145 → 190 mg m^−2, cycle 3inj2, read-out: CL (observed) (converted)) was 733 mL/min. The Cmax [2, 7] was 6520 ng/mL, the half-life [2, 7] was 45 min and the Vd ([2]; in vivo, iv, individual patients, twice weekly i.v. infusion, dose 145 → 190 mg m^−2, cycle 3inj2, read-out: Vz (observed)) was 48 L. For the same compound, the clearance ([2]; in vivo, range over the 25 evaluable patients, read-out: Plasma clearance (CL)) was 767 to 3580 mL/min, the Vd ([2]; in vivo, range over the 25 evaluable patients, read-out: volume of distribution (Vd)) was 39 to 215 L and the AUC ([2]; in vivo, at 145 mg m^−2) was 3720 ± 930 ng·h/mL. It also gave an AUC ([2]; in vivo, at 190 mg m^−2 in patients escalated from 145 mg m^−2 after 2 weeks) of 3610 ± 183 ng·h/mL, a Cmax [2, 8] of 1740 ng/mL and a half-life [2, 8] of 32.4 min. For the same compound, the Vd ([2]; plasma, iv, 48 mg m^−2, individual patients, twice weekly i.v. infusion, dose 48 mg m^−2, cycle 1inj2, read-out: Vz (observed)) was 69 L, the AUC(0-t) [2, 9] was 630 ng·h/mL and the clearance ([2]; plasma, iv, 48 mg m^−2, individual patients, twice weekly i.v. infusion, dose 48 mg m^−2, cycle 1inj8, read-out: CL (observed) (converted)) was 2080 mL/min. For the same compound, the Cmax [2, 9] was 2060 ng/mL, the half-life [2, 9] was 36.6 min and the Vd ([2]; plasma, iv, 48 mg m^−2, individual patients, twice weekly i.v. infusion, dose 48 mg m^−2, cycle 1inj8, read-out: Vz (observed)) was 109 L. The AUC(0-t) [2, 10] was 498 ng·h/mL, the clearance ([2]; plasma, iv, 48 mg m^−2, individual patients, twice weekly i.v. infusion, dose 48 mg m^−2, cycle 2inj8, read-out: CL (observed) (converted)) was 2630 mL/min and the Cmax [2, 10] was 1630 ng/mL. For the same compound, the half-life [2, 10] was 34.2 min, the Vd ([2]; plasma, iv, 48 mg m^−2, individual patients, twice weekly i.v. infusion, dose 48 mg m^−2, cycle 2inj8, read-out: Vz (observed)) was 131 L and the AUC(0-t) [2, 11] was 1500 ng·h/mL. It also gave a clearance ([2]; plasma, iv, 65 mg m^−2, individual patients, twice weekly i.v. infusion, dose 65 mg m^−2, cycle 1inj2, read-out: CL (observed) (converted)) of 1070 mL/min, a Cmax [2, 11] of 4370 ng/mL and a half-life [2, 11] of 27 min. For the same compound, the AUC(0-t) [2, 12] was 566 ng·h/mL, the clearance ([2]; plasma, iv, 65 mg m^−2, individual patients, twice weekly i.v. infusion, dose 65 mg m^−2, cycle 1inj3, read-out: CL (observed) (converted)) was 3170 mL/min and the Cmax [2, 12] was 2070 ng/mL. The half-life [2, 12] was 12 min, the Vd ([2]; plasma, iv, 65 mg m^−2, individual patients, twice weekly i.v. infusion, dose 65 mg m^−2, cycle 1inj3, read-out: Vz (observed)) was 55 L and the AUC(0-t) [2, 13] was 1310 ng·h/mL. It also gave a clearance ([2]; plasma, iv, 65 mg m^−2, individual patients, twice weekly i.v. infusion, dose 65 mg m^−2, cycle 1inj8, read-out: CL (observed) (converted)) of 1230 mL/min, a Cmax [2, 13] of 4100 ng/mL and a half-life [2, 13] of 43.8 min. The Vd ([2]; plasma, iv, 65 mg m^−2, individual patients, twice weekly i.v. infusion, dose 65 mg m^−2, cycle 1inj8, read-out: Vz (observed)) was 78 L, the AUC(0-t) [2, 14] was 1810 ng·h/mL and the clearance ([2]; plasma, iv, 85 mg m^−2, individual patients, twice weekly i.v. infusion, dose 85 mg m^−2, cycle 1inj2, read-out: CL (observed) (converted)) was 1320 mL/min. The Cmax [2, 14] was 2340 ng/mL and the half-life [2, 14] was 23.4 min.
